Test results taken from patent publication US11312723B2, “Pyranopyrazole and pyrazolopyridine immunomodulators for treatment of autoimmune diseases” (The Rockefeller University, priority 2017, dated 2022).
pIC50: −log10 of the molar value.

What follows are compounds tested against Human FXIIa (Homo sapiens (Human), UniProt P00748) (assay: Factor XIIa (FXIIa) inhibitory activity, chromogenic substrate (Pefachrome XIIa) cleavage). Conditions: 10 min pre-incubation, Pefachrome XIIa 400 μM.
Format: biochemical
Procedure: Factor XIIa (FXIIa) Inhibitory Activity:
In a 96-well clear bottom plate, 80 μl of assay buffer was added to each well. Assay buffer consists of 0.5× Hank's Balanced Salt Solution (Invitrogen), buffered with 25 mM HEPES pH 7.4 (Invitrogen) and 0.5× Tris-buffered saline with Tween-20 0.05% (Santa Cruz Biotechnology). Test compounds were first dissolved in DMSO (Sigma) and then 4 μl were added to test wells containing assay buffer. Serial dilutions using an automated multi-channel pipette were used to generate a concentration range of approximately 1-100 μM. Human FXIIa (Enzyme Research Labs) was diluted in assay buffer to a final concentration of 12.5 nM. 80 μl of this enzyme solution was added to the assay wells. The enzyme/compound mixtures were incubated for 10 minutes at room temperature. Chromogenic substrate (Pefachrome XIIa; Enzyme Research Labs) was added to assay wells at a final concentration of 400 μM. The assay plate was spun for 1 minute at 1500 g and then read at 37° C. in a SpectraMax M2 plate reader (λ=405 nm). Activity was quantified as the rate of change in absorbance, which corresponds to the rate of substrate cleavage. IC50 values were determined as the concentration of inhibitor that produced 50% of the rate of change of control wells without any inhibitor. For compounds with activity <1 μM, the assay was repeated with a lower concentration range, typically from 10-1000 nM.

Chain of Human FXIIa (P00748 373-615): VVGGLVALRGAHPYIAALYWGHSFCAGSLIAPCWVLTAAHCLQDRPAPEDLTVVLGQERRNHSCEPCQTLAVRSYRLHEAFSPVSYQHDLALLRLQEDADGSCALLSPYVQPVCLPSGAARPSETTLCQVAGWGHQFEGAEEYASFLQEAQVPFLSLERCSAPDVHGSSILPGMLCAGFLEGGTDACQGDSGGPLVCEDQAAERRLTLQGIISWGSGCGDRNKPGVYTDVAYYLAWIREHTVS
Chain of Human FXIIa (P00748 20-372 partner): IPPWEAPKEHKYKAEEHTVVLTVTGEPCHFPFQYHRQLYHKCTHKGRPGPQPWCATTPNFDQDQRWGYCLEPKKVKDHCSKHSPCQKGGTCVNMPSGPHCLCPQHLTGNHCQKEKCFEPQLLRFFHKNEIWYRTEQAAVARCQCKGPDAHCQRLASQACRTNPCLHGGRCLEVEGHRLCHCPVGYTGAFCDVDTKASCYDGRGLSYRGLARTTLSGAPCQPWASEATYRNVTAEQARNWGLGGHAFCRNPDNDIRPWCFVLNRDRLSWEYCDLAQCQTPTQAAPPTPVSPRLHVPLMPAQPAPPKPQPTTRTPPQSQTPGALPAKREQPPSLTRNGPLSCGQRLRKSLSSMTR

Structure (SMILES)	pIC50
Cc1cccc2c1NCCC2C(=O)n1nc(N)c2c1CNCC2 (centres unmarked) [Example 178, (3-amino-4,5,6,7-tetrahydro-pyrazolo[3,4-c]pyridin-1-yl)(8-methyl-1,2,3,4-tetrahydro-quinolin-4-yl)methanone]	4.22
CCc1ccc2c(c1)C(C(=O)n1nc3c(c1N)CCN(S(C)(=O)=O)C3)CCN2 (single isomer, unassigned) [Example 32, (S*)-(3-amino-6-(methylsulfonyl)-4,5,6,7-tetrahydropyrazolo[3,4-c]pyridin-2-yl)(6-ethyl-1,2,3,4-tetrahydroquinolin-4-yl)methanone]	7.70
CCc1cc(C)c2c(c1)C(C(=O)n1nc(N)c3c1CN(S(C)(=O)=O)CC3)CCN2 (centres unmarked) [Example 56, (3-amino-6-(methylsulfonyl)-4,5,6,7-tetrahydropyrazolo[3,4-c]pyridin-1-yl)(6-ethyl-8-methyl-1,2,3,4-tetrahydroquinolin-4-yl)methanone]	< 4.19
Cc1cc(F)cc2c1NCC[C@@H]2C(=O)n1nc2c(c1N)COCC2 (single isomer, unassigned) [Example 193, (S*)-(3-amino-6,7-dihydropyrano[4,3-c]pyrazol-2(4H)-yl)(6-fluoro-8-methyl-1,2,3,4-tetrahydro-quinolin-4-yl)methanone]	7.40
CCN1CCc2c(N)nn(C(=O)C3CCNc4ccc(Cl)cc43)c2C1 (centres unmarked) [Example 162, (3-amino-6-ethyl-4,5,6,7-tetrahydro-pyrazolo[3,4-c]pyridin-1-yl)(6-chloro-1,2,3,4-tetrahydro-quinolin-4-yl)methanone]	4.68
CS(=O)(=O)N1CCc2c(nn(C(=O)C3CCCc4[nH]c(Cl)cc43)c2N)C1 (single isomer, unassigned) [Example 132, (R*)-(3-amino-6-(methylsulfonyl)-4,5,6,7-tetrahydro-pyrazolo[3,4-c]pyridin-2-yl)(2-chloro-4,5,6,7-tetrahydro-1H-indol-4-yl)methanone]	5.52
CCc1cc(C)c2c(c1)C(C(=O)n1nc3c(c1N)CCN(S(C)(=O)=O)C3)CCN2 (single isomer, unassigned) [Example 70, (3-amino-6-(methylsulfonyl)-4,5,6,7-tetrahydropyrazolo[3,4-c]pyridin-2-yl)((R*)-6-ethyl-8-methyl-1,2,3,4-tetrahydroquinolin-4-yl)methanone]	5.30
CS(=O)(=O)N1CCc2c(N)nn(C(=O)C3CCNc4c(F)cccc43)c2C1 (centres unmarked) [Example 38, (3-amino-6-(methylsulfonyl)-4,5,6,7-tetrahydropyrazolo[3,4-c]pyridin-1-yl)(8-fluoro-1,2,3,4-tetrahydroquinolin-4-yl)methanone]	4.15
CS(=O)(=O)N1CCc2c(nn(C(=O)C3CC(=O)Nc4ccc(F)cc43)c2N)C1 (centres unmarked) [Example 43, 4-(3-amino-6-(methylsulfonyl)-4,5,6,7-tetrahydro-2H-pyrazolo[3,4-c]pyridine-2-carbonyl)-6-fluoro-3,4-dihydroquinolin-2(1H)-one]	5.40
Cc1cc2c(C(=O)n3nc(N)c4c3CN(Cc3ccccc3)CC4)cccc2[nH]1 [Example 11, (3-amino-6-benzyl-4,5,6,7-tetrahydropyrazolo[3,4-c]pyridin-1-yl)(2-methyl-1H-indol-4-yl)methanone]	4.30
CC(=O)Nc1ccc2c(c1)C(C(=O)n1nc(N)c3c1CN(S(C)(=O)=O)CC3)CCN2 (centres unmarked) [Example 48, N-(4-(3-amino-6-(methylsulfonyl)-4,5,6,7-tetrahydro-1H-pyrazolo[3,4-c]pyridine-1-carbonyl)-1,2,3,4-tetrahydroquinolin-6-yl)acetamide]	< 4.52
CC(C)(C)S(=O)(=O)N1CCc2c(N)nn(C(=O)C3CCNc4ccc(F)cc43)c2C1 (centres unmarked) [Example 139, (3-amino-6-(tert-butylsulfonyl)-4,5,6,7-tetrahydro-pyrazolo[3,4-c]pyridin-1-yl)(6-fluoro-1,2,3,4-tetrahydro-quinolin-4-yl)methanone]	4.26
Nc1nn(C(=O)C2CCNc3ccc(F)cc32)c2c1CCN(S(=O)(=O)CF)C2 (centres unmarked) [Example 141, (3-amino-6-(fluoromethyl-sulfonyl)-4,5,6,7-tetrahydro-pyrazolo(3,4-c]pyridin-1-yl)(6-fluoro-1,2,3,4-tetrahydro-quinolin-4-yl)methanone]	4.51
CCc1cccc2c1NCCC2C(=O)n1nc2c(c1N)CCN(S(C)(=O)=O)C2 (centres unmarked) [Example 65, (3-amino-6-(methylsulfonyl)-4,5,6,7-tetrahydropyrazolo[3,4-c]pyridin-2-yl)(8-ethyl-1,2,3,4-tetrahydroquinolin-4-yl)methanone]	7.05
CS(=O)(=O)N1CCc2c(N)nn(C(=O)C3CCNc4c3cccc4C(F)(F)F)c2C1 (centres unmarked) [Example 68, (3-amino-6-(methylsulfonyl)-4,5,6,7-tetrahydropyrazolo[3,4-c]pyridin-1-yl)(8-(trifluoromethyl)-1,2,3,4-tetrahydroquinolin-4-yl)methanone]	< 4.05

More lines, now with the values ahead:

pIC50	Structure (SMILES)
4.96	CS(=O)(=O)N1CCc2c(nn(C(=O)C3CCNc4ccc(F)cc43)c2N)C1 (single isomer, unassigned) [Example 19, (R*)-(3-amino-6-(methylsulfonyl)-4,5,6,7-tetrahydropyrazolo[3,4-c]pyridin-2-yl)(6-fluoro-1,2,3,4-tetrahydroquinolin-4-yl)methanone]
5.00	Nc1c2c(nn1C(=O)[C@@H]1CCNc3ccc(F)cc31)CNCC2 (single isomer, unassigned) [Example 147, (R*)-(3-amino-4,5,6,7-tetrahydro-pyrazolo[3,4-c]pyridin-2-yl)(6-fluoro-1,2,3,4-tetrahydro-quinolin-4-yl)methanone]
4.52	Cc1cccc2c1NCC[C@H]2C(=O)n1nc2c(c1N)CCNC2 (single isomer, unassigned) [Example 177, (R*)-(3-amino-4,5,6,7-tetrahydro-pyrazolo[3,4-c]pyridin-2-yl)(8-methyl-1,2,3,4-tetrahydro-quinolin-4-yl)methanone]
4.22	CS(=O)(=O)N1CCc2c(N)nn(C(=O)C3CCNc4c(Cl)cccc43)c2C1 (centres unmarked) [Example 58, (3-amino-6-(methylsulfonyl)-4,5,6,7-tetrahydropyrazolo[3,4-c]pyridin-1-yl)(8-chloro-1,2,3,4-tetrahydroquinolin-4-yl)methanone]
7.22	Cc1cc2c(C(=O)n3nc4c(c3N)CNCC4)cccc2[nH]1 [Example 2, (3-amino-4,5,6,7-tetrahydropyrazolo[4,3-c]pyridin-2-yl)(2-methyl-1H-indol-4-yl)methanone]
4.43	Nc1nn(C(=O)C2CCNc3ccc(F)cc32)c2c1CCN(S(=O)(=O)c1cccnc1)C2 (centres unmarked) [Example 158, (3-amino-6-(pyridin-3-ylsulfonyl)-4,5,6,7-tetrahydro-pyrazolo[3,4-c]pyridin-1-yl)(6-fluoro-1,2,3,4-tetrahydro-quinolin-4-yl)methanone]
5.35	CCN1CCc2c(nn(C(=O)[C@@H]3CCNc4c(C)cc(F)cc43)c2N)C1 (single isomer, unassigned) [Example 171, (R*)-(3-amino-6-ethyl-4,5,6,7-tetrahydro-pyrazolo[3,4-c]pyridin-2-yl)(6-fluoro-8-methyl-1,2,3,4-tetrahydro-quinolin-4-yl)methanone]
7.10	Cc1cc2c(C(=O)n3nc4c(c3N)CN(C(=O)OC(C)(C)C)CC4)cccc2[nH]1 [Example 1, tert-butyl 3-amino-2-[(2-methyl-1H-indol-4-yl)carbonyl]-4,5,6,7-tetrahydro-2H-pyrazolo[4,3-c]pyridin-5-carboxylate]
